Results reported in US20260063623A1, “METHODS OF ASSESSING METABOLIC FLUX” (The Regents of the University of Michigan, priority 2022, published 2026).
Like-named read-outs stand apart in the source and are kept apart here.

Assays:
[1] = test system: inosine monophosphate dehydrogenase (IMPDH); details: mice models, combined with radiation; cited from earlier work
[2] = test system: de novo GMP synthesis (IMPDH); experiment: Machine learning prediction of de novo GMP synthesis ratio in MMF treated vs control GBM PDXs infused with U13C glucose; format: in vivo; details: MMF treated GBM PDX mice vs control PDXs, from measured enrichment patterns
Description: To generate data used for flux modeling, patient-derived xenografts (PDXs) from human glioblastomas are implanted into the brains of immunodeficient mice. PDXs are transduced with luciferase and EGFP prior for imaging and physical separation from brain tissue, respectively. Once brain tumors are established, mice are cannulated for infusions, treatments, and blood sampling. One catheter is surgically placed into the jugular vein of anesthetized recipient mice, and a second line is placed into the carotid artery. In experiments in which mice are to receive oral administration of MMF or vehicle, a third catheter is directed to the stomach. […] Brain tumors are separated from healthy brain tissue by fluorescence-guided microdissection. […] Small molecules from solid tissues and plasma are extracted and samples are analyzed by liquid chromatography-mass spectrometry (LC-MS) to identify the metabolites and their labeling patterns (FIG. 1A).
To train machine learning models that can predict the ratio of de novo synthesis of GMP to the overall GMP synthesis, simulated MIDs were used as input features. […] A machine learning model with a good evaluation score on a test dataset should be also evaluated on some experimental value for further validation. […] By measuring the MIDs in these two groups, the de novo GMP ratio can be calculated using the INST-MFA method and compared to machine learning results. […]

[3] = design: species or system mice; details: mouse, in vivo
Description: At approximately 1-2 weeks before expected death related to brain tumors (˜3 weeks post-implant), intracranial GBM-bearing mice underwent dual catheterizations, with one catheter surgically placed into the jugular vein (for [U^13C]-glucose administration) and a second catheter placed into the carotid artery (for plasma collection during infusion). Mice were then allowed to recover from surgery for 4-5 days. In studies assessing the influence of RT on metabolism, cannulated mice were anesthetized by 2% isoflurane inhalation and then treated with cranially directed RT at a dose of 8 Gy or sham RT with a lead shield keeping the cranium […]. […]
Flash-frozen tissue samples were homogenized in cold (−80° C.) 80% methanol. […] Isotope labeling was determined using an Agilent system consisting of an Infinity Lab II UPLC coupled with a 6545 QTOF mass spectrometer (Agilent Technologies, Santa Clara, CA), and data were analyzed with values corrected for natural isotope abundance using MassHunter Profinder 10.0. […] To determine relative metabolite abundances in tissues and plasma from control or Ser/Gly (−) diet fed mice, samples were prepared as described above and then analyzed with an Agilent 1290 Infinity II LC-6470 Triple Quadrupole tandem mass spectrometer system (Agilent Technologies, Santa Clara, CA). […]

[4] = human, in vivo
Procedure: Eight patients with suspected GBM were recruited to the IRB-approved clinical study, which was performed perioperatively with standard-of-care craniotomies. Near the start of each procedure (approximately 2-4 hours prior to tissue resection), patients received a bolus intravenous dose of [U^13C]-glucose (8 g) followed by a continuous intravenous infusion of [U^13C]-glucose at a rate of 4 g/h. Arterial blood was collected into EDTA-coated vials every 30-60 min for plasma preparation and analysis until solid tissues of interest were harvested from each patient. […]
Flash-frozen tissue samples were homogenized in cold (−80° C.) 80% methanol. […] Isotope labeling was determined using an Agilent system consisting of an Infinity Lab II UPLC coupled with a 6545 QTOF mass spectrometer (Agilent Technologies, Santa Clara, CA), and data were analyzed with values corrected for natural isotope abundance using MassHunter Profinder 10.0. […] To determine relative metabolite abundances in tissues and plasma from control or Ser/Gly (−) diet fed mice, samples were prepared as described above and then analyzed with an Agilent 1290 Infinity II LC-6470 Triple Quadrupole tandem mass spectrometer system (Agilent Technologies, Santa Clara, CA). For compound optimization, calibration, and data acquisition, Agilent MassHunter Quantitative Analysis Software version B.08.02 was used.

| Compound | radiation outcomes [1] | de novo GMP synthesis ratio (de novo to overall GMP synthesis) predicted by machine learning model [2] | time to arterial steady state of labeled glucose [3] | time to arterial steady state of labeled glucose [4] |
| --- | --- | --- | --- | --- |
| COc1c(C)c2c(c(O)c1C/C=C(\C)CCC(=O)OCCN1CCOCC1)C(=O)OC2 [MMF, mycophenolate mofetil] | improves radiation outcomes | lower de novo GMP synthesis ratio | – | – |
| [U^13C]-glucose | – | – | ≤ 30 min | approximately 30 minutes |
